Measurements taken from publication PMC10866072, “Design, synthesis, molecular modelling and biological evaluation of novel 6-amino-5-cyano-2-thiopyrimidine derivatives as potent anticancer agents against leukemia and apoptotic inducers” (Journal of Enzyme Inhibition and Medicinal Chemistry, 2024).
Where two headings read alike, the source gives them in different places.

Assays:
HL-60(TB) = assay type: cell-based
K-562 = assay type: cell-based
RPMI-8226 = assay type: cell-based
HOP-92 = assay type: cell-based
NCI-H460 = assay type: cell-based
HCT-15 = assay type: cell-based
SW-620 = assay type: cell-based
SF-268 = assay type: cell-based
SNB-19 = assay type: cell-based
SNB-75 = assay type: cell-based
MALME-3M = assay type: cell-based
UACC-257 = assay type: cell-based
UACC-62 = assay type: cell-based
IGROV1 = assay type: cell-based
OVCAR-5 = assay type: cell-based
OVCAR-8 = assay type: cell-based
786-0 = assay type: cell-based
RXF 393 = assay type: cell-based; conditions: five-dose
TK-10 = assay type: cell-based
PC-3 = assay type: cell-based
DU-145 = assay type: cell-based
PI3Kα = target: T1, PI3Kα (Homo sapiens, UniProt P42336); assay: PI3 Kinase Activity/Inhibitor Assay Kit; assay type: biochemical; conditions: mean of two independent replicates ± SD
T1 construct: purchased Millipore Corporation 17-493 (assay kit)
T1 sequence (P42336 whole entry, species assumed): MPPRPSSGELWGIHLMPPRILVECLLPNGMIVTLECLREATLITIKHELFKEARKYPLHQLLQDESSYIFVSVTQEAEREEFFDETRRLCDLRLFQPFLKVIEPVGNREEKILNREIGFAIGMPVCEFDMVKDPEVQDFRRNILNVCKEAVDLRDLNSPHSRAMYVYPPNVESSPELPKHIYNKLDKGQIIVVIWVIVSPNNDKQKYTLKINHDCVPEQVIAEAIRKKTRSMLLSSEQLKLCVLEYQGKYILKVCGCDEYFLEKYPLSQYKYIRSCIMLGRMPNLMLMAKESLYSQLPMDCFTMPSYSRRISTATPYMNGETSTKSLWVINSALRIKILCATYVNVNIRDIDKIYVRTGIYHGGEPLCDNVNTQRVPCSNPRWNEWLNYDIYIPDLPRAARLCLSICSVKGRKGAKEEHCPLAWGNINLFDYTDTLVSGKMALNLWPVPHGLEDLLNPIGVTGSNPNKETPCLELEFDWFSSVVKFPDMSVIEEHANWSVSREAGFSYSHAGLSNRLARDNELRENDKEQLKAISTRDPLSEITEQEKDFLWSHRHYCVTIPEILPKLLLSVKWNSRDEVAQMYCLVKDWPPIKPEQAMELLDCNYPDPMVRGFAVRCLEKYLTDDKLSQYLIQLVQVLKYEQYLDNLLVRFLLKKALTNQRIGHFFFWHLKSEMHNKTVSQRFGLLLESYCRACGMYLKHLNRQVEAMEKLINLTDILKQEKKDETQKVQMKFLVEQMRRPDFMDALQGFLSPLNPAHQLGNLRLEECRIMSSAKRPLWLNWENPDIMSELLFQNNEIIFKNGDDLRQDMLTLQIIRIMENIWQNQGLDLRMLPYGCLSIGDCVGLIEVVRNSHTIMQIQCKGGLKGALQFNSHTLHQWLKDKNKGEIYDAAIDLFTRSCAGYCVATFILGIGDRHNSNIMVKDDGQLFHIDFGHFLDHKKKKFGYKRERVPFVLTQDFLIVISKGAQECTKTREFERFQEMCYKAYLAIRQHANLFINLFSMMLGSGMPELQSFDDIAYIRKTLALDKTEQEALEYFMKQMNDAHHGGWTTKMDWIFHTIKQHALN
T1 sequence (P27986 whole entry partner, species assumed): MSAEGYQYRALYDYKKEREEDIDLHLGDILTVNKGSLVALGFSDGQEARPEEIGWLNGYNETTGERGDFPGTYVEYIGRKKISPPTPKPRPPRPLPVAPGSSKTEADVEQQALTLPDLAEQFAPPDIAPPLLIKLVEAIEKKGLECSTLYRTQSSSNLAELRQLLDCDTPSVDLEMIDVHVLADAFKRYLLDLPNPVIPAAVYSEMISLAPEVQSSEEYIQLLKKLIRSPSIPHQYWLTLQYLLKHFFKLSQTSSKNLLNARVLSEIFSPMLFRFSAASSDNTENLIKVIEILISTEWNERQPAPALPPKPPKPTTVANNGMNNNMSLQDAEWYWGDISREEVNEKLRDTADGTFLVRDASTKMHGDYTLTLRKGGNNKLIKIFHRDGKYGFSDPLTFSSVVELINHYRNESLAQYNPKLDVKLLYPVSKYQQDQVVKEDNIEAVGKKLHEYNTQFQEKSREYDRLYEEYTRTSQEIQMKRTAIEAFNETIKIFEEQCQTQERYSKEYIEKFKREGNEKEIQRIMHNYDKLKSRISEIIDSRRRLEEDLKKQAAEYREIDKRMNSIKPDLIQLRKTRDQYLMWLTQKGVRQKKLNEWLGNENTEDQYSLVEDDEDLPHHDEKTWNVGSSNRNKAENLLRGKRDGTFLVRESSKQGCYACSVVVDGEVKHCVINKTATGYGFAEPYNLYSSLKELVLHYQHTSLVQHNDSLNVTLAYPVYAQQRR
Procedure: In vitro PI3 kinases inhibitory activity assay
All buffers, working standards and samples were prepared.
A total of 5 μl/well 5X kinase reaction buffer was added following the addition of the substrate, then distilled water was added to fill up to 25 μl. After incubation for 1 h at room temperature, 25 μl of biotinylated PIP3/EDTA working solution was added to all wells except the buffer control. Instead, 25 μl tris-buffered saline (TBS) was added to the buffer control wells. A general receptor phosphoinsitides -1 working solution was added to all wells then, was incubated for 1 h at room temperature. After incubation, all wells were washed with 200 μl 1X TBS -Tween followed by addition of 50 μl (horseradish peroxide as econjugated streptavidin) SA -HRP then were incubated for 1 h at room temperature. All wells were washed using 100 μl 1X TBS -Tween and TBS followed by addition of 100 μl of substrate 3,3’,5,5’-tetramethylbenzidine and kept in dark for 5–20 min.

HL60 cells = assay: Cell cycle analysis (propidium iodide, flow cytometry); assay type: cell-based, human; conditions: HL60, 48 h treatment
Procedure: (§1) Compound 1c was selected as a potent candidate, its effect on cell cycle phases of HL60 and leukaemia SR cells was investigated using propidium iodide staining and flow cytometric analysis according to the cell cycle kit (Abcam ®, ab139418-)[90]^,[91]^. Briefly, HL60 and leukaemia SR cells were cultured under optimum conditions. Afterwards, cells were treated by compound 1c for 48 h. Then, they were harvested, washed with PBS, and cell fixation was performed using ethanol on ice. Additionally, cells were pelleted at 500 xg for 5 min and supernatant was gently aspirated. Furthermore, fixed cells were washed by phosphate-buffered saline (PBS) and resuspended in 200 µl 1 x propidium iodide + RNAse staining solution and incubated in dark for 30 min. Finally, stained cells were tested by flow cytometer using FACSCalibur (Becton Dickinson Biosciences, CA, USA). Finally, Cell Quest software (Becton Dickinson Biosciences) was used to determine cell cycle distribution.

leukaemia SR cells = assay: as above; assay type: cell-based, human; conditions: 48 h treatment
Procedure: as §1

[1] = tested on: Ovarian cancer cell lines; assay: NCI-60 five-dose, subpanel
Excerpt: (§2) A measure of a compound’s selectivity for a given cell line is the ratio created by dividing the full panel mean graph midpoints (MG-MID) concentration by the individual subpanel MG-MID concentrations (obtained as the average sensitivity of all the cell lines in a given subpanel to the test compound).
(§3) Assessment of selectivity of a compound depends on the ratio obtained by dividing the full panel MID ^a by their individual subpanel MID ^b (µM) where MID^a is the average sensitivity of all cell lines towards the test agent (µM).

[2] = tested on: Prostate cancer cell lines; assay: NCI-60 five-dose, subpanel
Excerpt: as §2, §3

[3] = tested on: full NCI 60 cell lines panel
[4] = Homo sapiens, five-dose, read-out: LC50 (the source's name)
[5] = Homo sapiens, one dose 10^-5 M, 48 h
[6] = Homo sapiens, one dose 10^-5 M, 48 h, read-out: % growth
[7] = Homo sapiens, read-out: GI50 Subpanel MID^b

## N#Cc1c(N)nc(S)nc1-c1ccc(Cl)cc1Cl [Compound 1c, 4-Amino-6–(2,4-dichlorophenyl)-2-mercaptopyrimidine-5-carbonitrile]
HL-60(TB); Homo sapiens, five-dose
  GI50: 0.08 µM
HL-60(TB); [4]
  CC50: > 100 µM
HL-60(TB); [5]
  % growth at 10 µM: 5.3%
HL-60(TB); five-dose
  TGI: 1.82 µM
K-562; Homo sapiens, K562, five-dose
  GI50: 0.14 µM
K-562; Homo sapiens, K562, five-dose, read-out: LC50 (the source's name)
  CC50: > 100 µM
K-562; Homo sapiens, K562, one dose 10^-5 M, 48 h
  % growth at 10 µM: 36.9%
K-562; five-dose
  TGI: >100 µM
RPMI-8226; Homo sapiens, five-dose
  GI50: 0.6 µM
  LC50: > 100 µM
RPMI-8226; [5]
  % growth at 10 µM: 9.51%
RPMI-8226; five-dose
  TGI: 27.50 µM
HOP-92; Homo sapiens, five-dose
  GI50: 19.8 µM
  LC50 (50% lethal concentration): > 100 µM
HOP-92; [5]
  % growth at 10 µM: 105%
HOP-92; five-dose
  TGI: 56.40 µM
NCI-H460; Homo sapiens, five-dose
  GI50: 22.1 µM
NCI-H460; [4]
  CC50: > 100 µM
NCI-H460; [6]
  activity at 10 µM: 82.6%
NCI-H460; five-dose
  TGI: 56.80 µM
HCT-15; Homo sapiens, five-dose
  GI50: 0.08 µM
HCT-15; [4]
  CC50: 97.9 µM
HCT-15; [6]
  activity at 10 µM: 10.9%
HCT-15; five-dose
  TGI: 17.90 µM
SW-620; Homo sapiens, five-dose
  GI50: 12 µM
  LC50: 78.6 µM
SW-620; [5]
  % growth at 10 µM: 45.7%
SW-620; five-dose
  TGI: 30.70 µM
SF-268; Homo sapiens, five-dose
  GI50: 18.1 µM
SF-268; [4]
  CC50: > 100 µM
SF-268; [6]
  activity at 10 µM: 51%
SF-268; five-dose
  TGI: 52.70 µM
SNB-19; Homo sapiens, five-dose
  GI50: 17 µM
SNB-19; [4]
  CC50: > 100 µM
SNB-19; [6]
  activity at 10 µM: 75.4%
SNB-19; five-dose
  TGI: 50.00 µM
SNB-75; Homo sapiens, five-dose
  GI50: 4.9 µM
  LC50: 79.9 µM
SNB-75; [5]
  % growth at 10 µM: 36.5%
SNB-75; five-dose
  TGI: 25.50 µM
MALME-3M; Homo sapiens, five-dose
  GI50: 15.3 µM
MALME-3M; [4]
  CC50: 69.7 µM
MALME-3M; [5]
  % growth at 10 µM: 4.96%
MALME-3M; five-dose
  TGI: 32.70 µM
UACC-257; Homo sapiens, five-dose
  GI50: 14.7 µM
UACC-257; [4]
  CC50: 67.2 µM
UACC-257; [5]
  percent cell growth at 10 µM: 77.7%
UACC-257; five-dose
  TGI: 31.50 µM
UACC-62; Homo sapiens, five-dose
  GI50: 13.8 µM
UACC-62; [4]
  CC50: 57.6 µM
UACC-62; [5]
  % growth at 10 µM: 62.7%
UACC-62; five-dose
  TGI: 28.20 µM
IGROV1; Homo sapiens, IGROV-1, five-dose
  GI50: 19.2 µM
IGROV1; Homo sapiens, IGROV-1, five-dose, read-out: LC50 (the source's name)
  CC50: 87.6 µM
IGROV1; Homo sapiens, IGROV-1, one dose 10^-5 M, 48 h, read-out: % growth
  activity at 10 µM: 65.7%
IGROV1; five-dose
  TGI: 41.00 µM
OVCAR-5; Homo sapiens, five-dose
  GI50: 16.4 µM
OVCAR-5; [4]
  CC50: 63.2 µM
OVCAR-5; [5]
  percent cell growth at 10 µM: 93.5%
OVCAR-5; five-dose
  TGI: 32.20 µM
OVCAR-8; Homo sapiens, five-dose
  GI50: 21.8 µM
OVCAR-8; [4]
  CC50: > 100 µM
OVCAR-8; [5]
  % growth of cells at 10 µM: 5.74%
OVCAR-8; five-dose
  TGI: 74.70 µM
786-0; Homo sapiens, five-dose
  GI50: 17.5 µM
786-0; [4]
  CC50: 99.1 µM
786-0; [5]
  % growth at 10 µM: 67%
786-0; five-dose
  TGI: 41.60 µM
RXF 393; Homo sapiens
  GI50: 12.7 µM
RXF 393; Homo sapiens, read-out: LC50 (the source's name)
  CC50: 52.2 µM
RXF 393
  TGI: 25.70 µM
TK-10; Homo sapiens, five-dose
  GI50: 21.5 µM
  LC50 (50% lethal concentration): > 100 µM
TK-10; [5]
  % cell growth at 10 µM: 114%
TK-10; five-dose
  TGI: 50.20 µM
PC-3; Homo sapiens, five-dose
  GI50: 11.1 µM
PC-3; [4]
  CC50: > 100 µM
PC-3; [5]
  percent cell growth at 10 µM: 49.8%
PC-3; five-dose
  TGI: 48.20 µM
DU-145; Homo sapiens, five-dose
  GI50: 14.9 µM
  LC50: 57.4 µM
DU-145; [5]
  % growth at 10 µM: 51.3%
DU-145; five-dose
  TGI: 29.20 µM
PI3Kα
  IC50: 0.88 ± 0.005 µM
HL60 cells
  % cells in G0/G1 (%DIP G1): 57.37%
  % cells in S phase: 33.07%
Leukaemia SR cells
  % cells in G1 (%DIP G1): 55.22%
  % cells in S phase: 31.89%
[1]; [7]
  GI50: 19.2 µM
[1]; ovarian cancer
  Selectivity ratio (full panel MID^a / subpanel MID^b, GI50 level): 0.7
[2]; [7]
  GI50: 13 µM
[2]; prostate cancer
  Selectivity ratio (full panel MID^a / subpanel MID^b, GI50 level): 0.99
[3]; Homo sapiens, 60 cell, 48 h, read-out: Mean % growth
  activity at 10 µM: 53.3%
[3]; Homo sapiens, 60 cell, read-out: LC50 values (MG-MID)
  CC50: 77.6 µM
[3]; Homo sapiens, 60 cell, read-out: MID^a, average sensitivity of all cell lines (GI50)
  GI50: 12.9 µM
[3]; Homo sapiens, 60 cell, read-out: full panel GI50 (MG-MID)
  GI50: 6.76 µM
[3]; five-dose
  log10 GI50, range over all 60 cell lines: −4.50 to −7.25
[3]; one dose, range over those cell lines
  % growth values, cell lines with lethal effect: −18.77 to −49.21%
